The source of these data is patent US8101655B2, “Fluorescent dyes and complexes” (priority 2004, dated 2012).

Where two headings read alike, the source gives them in different places.

Series [1] is described as follows: pKa of dyes and complexes (fluorescence titration).
Source text: By way of illustration, Table 1, below, lists a number of dyes, some prior to functionalisation, and complexes according to the present invention (in each X is O^−), together with their pKa values.
Series [2] can be described thus: Fluorescence / colour response to pH. The format is physicochemical. The conditions noted are these: on tlc, compared with 2-[3,6-bisdimethylaminoxanth-9-ylium]-5-dimethylaminophenol. The source says:
The dyes and complexes of the present invention show a negative fluorescence intensity response with increasing pH. […] Furthermore, the pals of these dyes and complexes may be varied by selection of the substituents R^5 and R^6, and by the inclusion of electron donating groups on the lowermost aryl ring, to give a range of dyes and complexes having pKa's particularly suited to cell analysis procedures.

Usually pKa stands for the negative logarithm of the acid dissociation constant. The low end stands for a group that gives up its proton readily, the high end for a group that holds its proton tightly. `COCCOCCN(CCOCCOC)c1ccc(-c2c3ccc(=[N+](CCOCCOC)CCOCCOC)cc-3oc3cc(N(CCOCCOC)CCOCCOC)ccc23)c([O-])c1` returned a pKa in series [1] of 2.3.
As to “2-[3-diethylamino-6-dimethylamino-xanth-9-ylium]-5-dimethylaminophenol”, in series [2], the pH sensitivity entry is “same pH sensitivity”.
With “R1-Y=NHCSNC6H4CH2CH2; target=transferin; R2=Et; R3=Me; R4=Me; R5-Y2=Et; R6=Et: complex of a dye of formula (I) bonded to transferin”, the pKa in series [1] (Table 1, X is O-, dyes and complexes) was 2.0.
